Assay results: patent publication EP0168112A2, “Alpha-L-aspartyl-D-phenylglycine esters and amides useful as high intensity sweeteners” (THE PROCTER & GAMBLE COMPANY, priority 1984, dated 1986)
Square brackets hold non-standard residues; d marks the D form. Peptide text beside a SMILES is read from it. Phg = N[C@H](C(=O)O)c1ccccc1

Assay: Sweetness intensity relative to sucrose, taste panel comparison with five sucrose standard samples
Type: in vivo, Male subjects
Conditions: relative to sucrose (w/v); test sample about 22°C, prepared at a concentration equal to about 8-10% sucrose
Experimental: The subjects were asked to taste and expectorate about 10 ml of a test sample (temperature of about 22°C) having dissolved therein the ester or amide. The subjects were then asked to compare the sweetness of the test sample with five standard samples which contained increasing amounts of sucrose. The standard samples were letter coded A, B, C, D and E and were designated on a ballot by a closed linear scale. Sweetness intensity of the test sample was recorded by the subject making a mark on the linear scale at a point they considered equal in sweetness among the standard samples; interpolation between standards was encouraged. After completion of the panel, a five point numeric scale was superimposed on the linear scales to obtain numerical data; data were averaged and recorded to the nearest 0.25 unit. Equivalent sucrose sweetness was determined by referring to graphs of (wlv) sucrose concentration in the standard samples versus a linear numeric scale.
Sweetness intensity was calculated by dividing the concentration (w/v) of perceived sweeteness by the concentration (wlv) of the ester or amide required to produce that sweetness. […] The test sample was prepared at a concentration which would be equal to about 8-10% sucrose.

**Q.** With `CC1(C)[C@@H]2CC[C@@](C)(C2)[C@@H]1OC(=O)[C@H](NC(=O)[C@@H](N)CC(=O)O)c1ccccc1` [Example 1, alpha-L-Aspartyl-D-phenylglycine-(-)-alpha-fenchyl ester] as the compound, how does the sweetness intensity read?
**A.** 1750 X

**Q.** For `CC(OC(=O)[C@H](NC(=O)[C@@H](N)CC(=O)O)c1ccccc1)C(C)(C)C` (stereo partly drawn) [Example 2, 3,3-Dimethyl-2-butyl ester], which sweetness intensity is on record?
**A.** 30 X

**Q.** For `CC1CCC(C)C1OC(=O)[C@H](NC(=O)[C@@H](N)CC(=O)O)c1ccccc1` (stereo partly drawn) [Example 4, 2,5-Dimethylcyclopentyl ester], which sweetness intensity is on record?
**A.** 370 X

**Q.** Which sweetness intensity does the source give for `N[C@@H](CC(=O)O)C(=O)N[C@@H](C(=O)NC(C1CC1)C1CC1)c1ccccc1` [Example 12, alpha-L-Aspartyl-D-phenylglycinedicyclopropylcarbinyl amide] here?
**A.** 80 X

**Q.** For (±) endo-Norbornyl ester [Example 5], which sweetness intensity is on record?
**A.** 20 X

**Q.** Which sweetness intensity does the source give for (±) exo-Norbornyl ester [Example 6] here?
**A.** 150 X

**Q.** With “alpha-L-Aspartyl-D-phenylglycine-(+)-beta-fenchyl ester [Example 8b]” as the compound, how does the sweetness intensity read?
**A.** 5000 X

**Q.** Which sweetness intensity does the source give for “alpha-L-Aspartyl-D-phenylglycine-(-)-beta-fenchyl ester [Example 8a]” here?
**A.** 600 X

Assay: Sweetness intensity based on informal panel testing
Type: in vivo
Conditions: not given

**Q.** With `CC1(C)SC(C)(C)C1NC(=O)[C@H](NC(=O)[C@@H](N)CC(=O)O)c1ccccc1` [Example 11, alpha-L-Aspartyl-D-phenylglycine-2,2,4,4-tetramethylthietan-3-yl amide] as the compound, how does the sweetness intensity read?
**A.** 100 X

**Q.** For “alpha-L-Aspartyl-D-phenylglycine-alpha-7-oxa-fenchyl ester [Example 14]”, which sweetness intensity is on record?
**A.** approximately 1000 X

Assay: Solubility for the sweetness intensity measurement
Type: physicochemical
Conditions: sweetness intensity test sample

**Q.** Which solubility does the source give for `CC1CCCC(C)C1NC(=O)[C@H](NC(=O)[C@@H](N)CC(=O)O)c1ccccc1` (stereo partly drawn) [Example 10, 2,6-Dimethylcyclohexyl amide] here?
**A.** too Insoluble for an accurate sweetness intensity measurement

Assay: not given
Conditions: prior art value; cited from earlier work

**Q.** With `C[C@@H](NC(=O)[C@@H](N)CC(=O)O)C(=O)NC1C(C)(C)S(=O)(=O)C1(C)C` as the compound, how does the sweetness intensity read?
**A.** 1000 times that of sucrose

**Q.** For `C[C@@H](NC(=O)[C@@H](N)CC(=O)O)C(=O)NC1C(C)(C)SC1(C)C` [2,2,4,4-tetramethylthietan-3-yl], which sweetness intensity is on record?
**A.** 2000 times that of sucrose

**Q.** Which sweetness intensity does the source give for `CC1CCC(C)C1NC(=O)[C@@H](C)NC(=O)[C@@H](N)CC(=O)O` (stereo partly drawn) [2,5 dimethylcyclopentyl] here?
**A.** 520 times that of sucrose

**Q.** Which sweetness intensity does the source give for `CC1CCCC(C)C1NC(=O)[C@@H](C)NC(=O)[C@@H](N)CC(=O)O` (stereo partly drawn) [2,6-dimethylcyclohexyl] here?
**A.** 600 times that of sucrose

**Q.** With `CCOC(=O)C(NC(=O)[C@@H](N)CC(=O)O)C(=O)OC1C2(C)CCC(C2)C1(C)C` (stereo partly drawn) [R' is fenchyl and R is ethyl] as the compound, how does the sweetness intensity read?
**A.** 4200-5400 times that of sucrose

**Q.** Which sweetness intensity does the source give for `COC(=O)C(NC(=O)[C@@H](N)CC(=O)O)C(=O)OC1C2(C)CCC(C2)C1(C)C` (stereo partly drawn) [R' is fenchyl and R is methyl] here?
**A.** 22,200-33,200 times that of sucrose

**Q.** For `O=C1NS(=O)(=O)c2ccccc21` [Saccharin, saccharin], which sweetness intensity is on record?
**A.** about 300 times that of sucrose

**Q.** With `COC(=O)[C@H](Cc1ccccc1)NC(=O)[C@@H](N)CC(=O)O` [aspartame, alpha-L-aspartyl-L-phenylalanine methyl ester] (H-Asp-Phe-OMe) as the compound, how does the sweetness intensity read?
**A.** 150-200 times that of sucrose

**Q.** Which sweetness intensity does the source give for `C[C@@H](NC(=O)[C@@H](N)CC(=O)O)C(=O)NC(C1CC1)C1CC1` [dicyclopropylcarbinyl] here?
**A.** 1200 times that of sucrose

**Q.** For `COC(=O)[C@@H](NC(=O)[C@@H](N)CC(=O)O)c1ccccc1` [methyl ester of L-aspartyl-L-phenylglycine] (H-Asp-[Phg]-OMe), which sweetness intensity is on record?
**A.** 100-1000 times that of sucrose

Same assay, conditions: taste description from prior art; cited from earlier work

**Q.** Which taste does the source give for `COC(=O)[C@@H](Cc1ccccc1)NC(=O)[C@@H](N)CC(=O)O` [methyl ester of L-aspartyl-D-phenylalanine] (H-Asp-[dF]-OMe) here?
**A.** bitter

**Q.** With `COC(=O)[C@@H](NC(=O)[C@@H](N)CC(=O)O)c1ccccc1` [methyl ester of L-aspartyl-L-phenylglycine] (H-Asp-[Phg]-OMe) as the compound, how does the taste read?
**A.** quite sweet

Assay: not given
Conditions: in most carbonated beverages; background statement; cited from earlier work

**Q.** Which hydrolytic stability does the source give for `COC(=O)[C@H](Cc1ccccc1)NC(=O)[C@@H](N)CC(=O)O` [aspartame, alpha-L-aspartyl-L-phenylalanine methyl ester] (H-Asp-Phe-OMe) here?
**A.** hydrolytically unstable
